Experimental data published in PubChem BioAssay (NCI).
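Each compound was tested at five concentrations against cells in 96-well plates for 48 hours. GI50 = concentration required for 50% inhibition of growth. The concentration for full growth arrest is given as TGI.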

Legend:
Experiment in all cases: NCI-60 cell line screen, 48 h
OVCAR-3 ovarian = test system: OVCAR-3 ovarian
NCI/ADR-RES ovarian = test system: NCI/ADR-RES ovarian
CCRF-CEM leukemia = test system: CCRF-CEM leukemia
DU-145 prostate = test system: DU-145 prostate
NCI-H460 lung = test system: NCI-H460 lung
MCF7 breast = test system: MCF7 breast
U251 CNS = test system: U251 CNS
OVCAR-5 ovarian = test system: OVCAR-5 ovarian
SNB-19 CNS = test system: SNB-19 CNS
HS 578T breast = test system: HS 578T breast
SK-MEL-2 melanoma = test system: SK-MEL-2 melanoma
SR leukemia = test system: SR leukemia
SNB-75 CNS = test system: SNB-75 CNS
HT29 colon = test system: HT29 colon
UACC-62 melanoma = test system: UACC-62 melanoma
SK-MEL-5 melanoma = test system: SK-MEL-5 melanoma
HCC-2998 colon = test system: HCC-2998 colon
NCI-H522 lung = test system: NCI-H522 lung
OVCAR-8 ovarian = test system: OVCAR-8 ovarian
NCI-H226 lung = test system: NCI-H226 lung
RPMI-8226 leukemia = test system: RPMI-8226 leukemia
UACC-257 melanoma = test system: UACC-257 melanoma
IGROV1 ovarian = test system: IGROV1 ovarian
SF-295 CNS = test system: SF-295 CNS
HCT-116 colon = test system: HCT-116 colon
KM12 colon = test system: KM12 colon
786-0 renal = test system: 786-0 renal
M14 melanoma = test system: M14 melanoma
MDA-MB-435 = test system: MDA-MB-435
HL-60(TB) leukemia = test system: HL-60(TB) leukemia
SK-MEL-28 melanoma = test system: SK-MEL-28 melanoma
HCT-15 colon = test system: HCT-15 colon
BT-549 breast = test system: BT-549 breast
EKVX NSCLC = test system: EKVX NSCLC
UO-31 renal = test system: UO-31 renal
SF-268 CNS = test system: SF-268 CNS
CAKI-1 renal = test system: CAKI-1 renal
PC-3 prostate = test system: PC-3 prostate
SN12C renal = test system: SN12C renal
HOP-62 NSCLC = test system: HOP-62 NSCLC
ACHN renal = test system: ACHN renal
SW-620 colon = test system: SW-620 colon
MALME-3M melanoma = test system: MALME-3M melanoma
T-47D breast = test system: T-47D breast
MDA-N = test system: MDA-N
MDA-MB-231 breast = test system: MDA-MB-231 breast
OVCAR-4 ovarian = test system: OVCAR-4 ovarian
SK-OV-3 ovarian = test system: SK-OV-3 ovarian
K-562 leukemia = test system: K-562 leukemia
COLO 205 colon = test system: COLO 205 colon
MOLT-4 leukemia = test system: MOLT-4 leukemia
A498 renal = test system: A498 renal
HOP-92 NSCLC = test system: HOP-92 NSCLC
A549 NSCLC = test system: A549 NSCLC
NCI-H23 lung = test system: NCI-H23 lung
RXF 393 renal = test system: RXF 393 renal
LOX IMVI melanoma = test system: LOX IMVI melanoma

Compound: COC(C)(C)[C@@H](O)[C@H](O)C[C@H](C)C1=C2CC[C@@H]3[C@@]4(C)CC[C@@H](OC(C)=O)C(C)(C)[C@@H]4C[C@@H](OC4OC(COC(C)=O)C(O)C(O)C4O)[C@@]3(C)[C@]2(C)CC1 (stereo partly specified)
- GI50 (OVCAR-3 ovarian): 7.37 µM
- TGI (OVCAR-3 ovarian): 21.1 µM
- GI50 (NCI/ADR-RES ovarian): 15.2 µM
- TGI (NCI/ADR-RES ovarian): 29.4 µM
- GI50 (CCRF-CEM leukemia): 5.34 µM
- TGI (CCRF-CEM leukemia): 19.9 µM
- GI50 (DU-145 prostate): 15 µM
- TGI (DU-145 prostate): 28.5 µM
- GI50 (NCI-H460 lung): 9.06 µM
- TGI (NCI-H460 lung): 25.5 µM
- GI50 (MCF7 breast): 2.62 µM
- TGI (MCF7 breast): 12.4 µM
- TGI (U251 CNS): 22.5 µM
- GI50 (OVCAR-5 ovarian): 14.9 µM
- TGI (OVCAR-5 ovarian): 28.1 µM
- GI50 (SNB-19 CNS): 12.2 µM
- TGI (SNB-19 CNS): 25.1 µM
- GI50 (HS 578T breast): 11.8 µM
- TGI (HS 578T breast): 28.3 µM
- GI50 (SK-MEL-2 melanoma): 13.2 µM
- TGI (SK-MEL-2 melanoma): 26 µM
- GI50 (SR leukemia): 3.06 µM
- TGI (SR leukemia): 14.3 µM
- TGI (SNB-75 CNS): 21.2 µM
- GI50 (HT29 colon): 5.08 µM
- TGI (HT29 colon): 16.9 µM
- GI50 (UACC-62 melanoma): 8.79 µM
- TGI (UACC-62 melanoma): 21.7 µM
- GI50 (SK-MEL-5 melanoma): 14.4 µM
- TGI (SK-MEL-5 melanoma): 27.8 µM
- GI50 (HCC-2998 colon): 4 µM
- TGI (HCC-2998 colon): 13.4 µM
- GI50 (NCI-H522 lung): 12.2 µM
- TGI (NCI-H522 lung): 25.2 µM
- GI50 (OVCAR-8 ovarian): 12.8 µM
- TGI (OVCAR-8 ovarian): 26.3 µM
- GI50 (NCI-H226 lung): 13.3 µM
- TGI (NCI-H226 lung): 26.7 µM
- GI50 (RPMI-8226 leukemia): 4.15 µM
- TGI (RPMI-8226 leukemia): 22.1 µM
- GI50 (UACC-257 melanoma): 12.6 µM
- TGI (UACC-257 melanoma): 25.4 µM
- GI50 (IGROV1 ovarian): 13.1 µM
- TGI (IGROV1 ovarian): 26.2 µM
- GI50 (SF-295 CNS): 11.6 µM
- TGI (SF-295 CNS): 24.1 µM
- GI50 (HCT-116 colon): 6.09 µM
- TGI (HCT-116 colon): 19.2 µM
- GI50 (KM12 colon): 3.55 µM
- TGI (KM12 colon): 18.9 µM
- GI50 (786-0 renal): 14.4 µM
- TGI (786-0 renal): 27.5 µM
- GI50 (M14 melanoma): 12.4 µM
- TGI (M14 melanoma): 25.4 µM
- GI50 (MDA-MB-435): 12.3 µM
- TGI (MDA-MB-435): 25.6 µM
- GI50 (HL-60(TB) leukemia): 3.6 µM
- TGI (HL-60(TB) leukemia): 16 µM
- GI50 (SK-MEL-28 melanoma): 11.7 µM
- TGI (SK-MEL-28 melanoma): 24.2 µM
- GI50 (HCT-15 colon): 11 µM
- TGI (HCT-15 colon): 23.8 µM
- GI50 (BT-549 breast): 15.1 µM
- TGI (BT-549 breast): 28.7 µM
- GI50 (EKVX NSCLC): 13 µM
- TGI (EKVX NSCLC): 26.2 µM
- GI50 (UO-31 renal): 13.6 µM
- TGI (UO-31 renal): 26.9 µM
- GI50 (SF-268 CNS): 10.3 µM
- TGI (SF-268 CNS): 25.9 µM
- GI50 (CAKI-1 renal): 4.1 µM
- TGI (CAKI-1 renal): 14.8 µM
- GI50 (PC-3 prostate): 5.68 µM
- TGI (PC-3 prostate): 18.5 µM
- GI50 (SN12C renal): 13.4 µM
- TGI (SN12C renal): 26.4 µM
- GI50 (HOP-62 NSCLC): 14.3 µM
- TGI (HOP-62 NSCLC): 27.4 µM
- GI50 (ACHN renal): 10.4 µM
- TGI (ACHN renal): 22.2 µM
- GI50 (SW-620 colon): 15.7 µM
- TGI (SW-620 colon): 30.1 µM
- GI50 (MALME-3M melanoma): 15.2 µM
- TGI (MALME-3M melanoma): 29.4 µM
- GI50 (T-47D breast): 12.6 µM
- TGI (T-47D breast): 25.6 µM
- GI50 (MDA-N): 11.8 µM
- TGI (MDA-N): 24.6 µM
- GI50 (MDA-MB-231 breast): 11.6 µM
- TGI (MDA-MB-231 breast): 23.8 µM
- GI50 (OVCAR-4 ovarian): 10.8 µM
- TGI (OVCAR-4 ovarian): 23.1 µM
- TGI (SK-OV-3 ovarian): 28.7 µM
- GI50 (K-562 leukemia): 6.06 µM
- TGI (K-562 leukemia): 22.3 µM
- GI50 (COLO 205 colon): 10.6 µM
- TGI (COLO 205 colon): 22.8 µM
- GI50 (MOLT-4 leukemia): 5.07 µM
- TGI (MOLT-4 leukemia): 23.9 µM
- GI50 (A498 renal): 14.2 µM
- TGI (A498 renal): 27.6 µM
- GI50 (HOP-92 NSCLC): 13 µM
- TGI (HOP-92 NSCLC): 25.8 µM
- GI50 (A549 NSCLC): 7.77 µM
- TGI (A549 NSCLC): 20.3 µM
- GI50 (NCI-H23 lung): 14.4 µM
- TGI (NCI-H23 lung): 27.4 µM
- GI50 (RXF 393 renal): 6.96 µM
- TGI (RXF 393 renal): 19.5 µM
- GI50 (LOX IMVI melanoma): 6.36 µM
- TGI (LOX IMVI melanoma): 19.6 µM
